Test: Liver microsome stability
Assay type: in vitro ADME
Conditions: pH 7.4; human liver microsomes 0.5 mg/mL, NADPH, 37 °C; read-out: Microsomal stability t1/2
Description: page 6: A03 DDL-214 Figure S3B. SirT1 protein levels in N2a-E4 cells after A03 and DDL-214 treatment. Compound treatment was done at 5 and 50 µM. SirT1 levels were measured by AlphaLISA followed and normalized to protein concentration DDL-218 Physiochemical Properties Physiochemical properties of DDL-218 are shown in Table S2. Brain Tissue Binding [fu,bound (%)] Brain tissue was homogenized in PBS (pH 7.4) (1: 3 weight(mg)/volume(µL)) and the protein concentration of was determined using the Micro BCA™ Protein Assay Kit (Thermo Fisher Scientific, Cat#23235). Brain homogenate was diluted to 20 mg/mL in PBS (pH 7.4) and added to Slide-A-Lyzer™ MINI Dialysis Devices, 10K MWCO dialysis cups (Thermo Fisher Scientific, Cat#PI88401) in 48-well plate containing PBS (500 µL; pH 7.4). 1 µL of 1 mM compound was added to the brain homogenate (Final Concentration: 2 µM compound, 0.5% DMSO) and incubated on a rocker for 4.5 hours at 37 °C. […] The % of the unbound drug (fu,bound) was calculated using the following equation: fu,bound = [normalized peak area in buffer side / normalized peak area in brain side] x 100 Liver Microsome Stability [t1/2 (min)] […] An aliquot (50 µL) of each supernatant was analyzed by LC-MS/MS. […] Aliquots (50 µL) of supernatant were analyzed by LC-MS/MS to create the standard curve. […]

## CC(N)C(=O)OC(C)(C)Cc1ccncc1 (stereo not shown) [DDL-218]
  half-life: > 2.33 h
